Experimental data from paper PMC10202811 (Nature Medicine, 2023).
Where “and” joins values, the source holds several entries; their conditions need not be identical. Equal entries are not always repeated.

Assay: Plasma pharmacokinetics of lorlatinib at steady state (LC-MS/MS, non-compartmental analysis)
Format: in vivo, human
Set-up: Vz_F / Cmax_D / AUMClast / AUMC_TAU: unit not given here
Conditions: for Tlag: unit assumed
From the text: Lorlatinib was isolated from human plasma by a liquid-iquid extraction procedure. […] A linear-log trapezoidal method was used [NT] A best-fit method was used to estimate terminal elimination and to extrapolate any plasma concentration versus time profiles to compute [NT].

[1] = Cohort A1, 45 mg/m2 per dose, C1D15, Max, N 3
[2] = Cohort A1, 45 mg/m2 per dose, C1D15, Min, N 3
[3] = Cohort A1, 45 mg/m2 per dose, C1D15, individual patient
[4] = Cohort A1, 60 mg/m2 per dose, C1D15, Max, N 3
[5] = Cohort A1, 60 mg/m2 per dose, C1D15, Min, N 3
[6] = Cohort A1, 60 mg/m2 per dose, C1D15, individual patient
[7] = Cohort A1, 75 mg/m2 per dose, C1D15, Max, N 3
[8] = Cohort A1, 75 mg/m2 per dose, C1D15, Min, N 3
[9] = Cohort A1, 75 mg/m2 per dose, C1D15, individual patient
[10] = Cohort A1, 95 mg/m2 per dose, C1D15, Max, N 9
[11] = Cohort A1, 95 mg/m2 per dose, C1D15, Min, N 9
[12] = Cohort A1, 95 mg/m2 per dose, C1D15, individual patient
[13] = Cohort A1, 115 mg/m2 per dose, C1D15, Max, N 6
[14] = Cohort A1, 115 mg/m2 per dose, C1D15, Min, N 6
[15] = Cohort A1, 115 mg/m2 per dose, C1D15, individual patient
[16] = Cohort A2, 100 mg per dose, C1D15, Max, N 5
[17] = Cohort A2, 100 mg per dose, C1D15, Min, N 5
[18] = Cohort A2, 100 mg per dose, C1D15, individual patient
[19] = Cohort A2, 150 mg per dose, C1D15, Min, N 10
[20] = Cohort A2, 150 mg per dose, C1D15, individual patient
[21] = Cohort B2, 95 mg/m2 per dose, C1D15, Min, N 2
[22] = Cohort B2, 95 mg/m2 per dose, C1D15, individual patient
[23] = Cohort B2, 115 mg/m2 per dose, C1D15, Max, N 6
[24] = Cohort B2, 115 mg/m2 per dose, C1D15, Min, N 6
[25] = Cohort B2, 115 mg/m2 per dose, C1D15, individual patient
[26] = Cycle 1 Day 1, Cohort A1, 95 mg/m2 per dose
[27] = Cycle 1 Day 1, Cohort A1, 115 mg/m2 per dose
[28] = Cycle 1 Day 1, Cohort A2, 150 mg per dose
[29] = Cycle 1 Day 1, Cohort A2, 150 mg per dose, in h (unit assumed)
[30] = Cycle 1 Day 1, Cohort A2, 150 mg per dose, in ng·h/mL (unit assumed)

Structure (SMILES): C[C@H]1Oc2cc(cnc2N)-c2c(nn(C)c2C#N)CN(C)C(=O)c2ccc(F)cc21 [Lorlatinib, (10R)-7-amino-12-fluoro-2,10,16-trimethyl-15-oxo-10,15,16,17-tetrahydro-2H-8,4-(metheno)pyrazolo[4,3-h][2,5,11]-benzoxadiazacyclotetradecine-3-carbonitrile]
- AUCtau or Cmax at steady state with oral dispersion formulation (17 patients who received the oral dispersion formulation): no differences
- CLss_F (Cohort A1, 45 mg/m2 per dose, C1D15, Geometric Mean, N 3): 15.376 L/h
- AUC_TAU [1]: 3727.9 ng·h/mL
- CLss_F [1]: 19.85 L/h
- Cmax [1]: 639 ng/mL
- Tmax [1]: 2 h
- AUC_TAU [2]: 1259.74 ng·h/mL
- Cmax [2]: 243 ng/mL
- Tmax [2]: 1 h
- AUC_TAU [3]: 1259.74 ng·h/mL and 3727.9 ng·h/mL
- CLss_F [3]: 19.85 L/h and 12.41 L/h and 14.75 L/h
- Cmax [3]: 639 ng/mL and 243 ng/mL
- Tmax [3]: 2 h
- CLss_F (Cohort A1, 60 mg/m2 per dose, C1D15, Geometric Mean, N 3): 13.223 L/h
- AUC_TAU [4]: 4173.07 ng·h/mL
- CLss_F [4]: 16.77 L/h
- Cmax [4]: 623 ng/mL
- Tmax [4]: 2 h
- CLss_F (Cohort A1, 60 mg/m2 per dose, C1D15, Median, N 3): 12.07 L/h
- AUC_TAU [5]: 3503.02 ng·h/mL
- CLss_F [5]: 11.42 L/h
- Cmax [5]: 343 ng/mL
- Tmax [5]: 1 h
- AUC_TAU [6]: 3503.02 ng·h/mL and 4173.07 ng·h/mL
- CLss_F [6]: 12.07 L/h and 11.42 L/h and 16.77 L/h
- Cmax [6]: 343 ng/mL
- Tmax [6]: 2 h
- CLss_F (Cohort A1, 75 mg/m2 per dose, C1D15, Geometric Mean, N 3): 15.412 L/h
- AUC_TAU [7]: 6555.75 ng·h/mL
- CLss_F [7]: 18.36 L/h
- Cmax [7]: 670 ng/mL
- Tmax [7]: 6 h
- CLss_F (Cohort A1, 75 mg/m2 per dose, C1D15, Median, N 3): 17.43 L/h
- AUC_TAU [8]: 2723.69 ng·h/mL
- CLss_F [8]: 11.44 L/h
- Cmax [8]: 609 ng/mL
- Tmax [8]: 1 h
- AUC_TAU [9]: 6555.75 ng·h/mL and 2723.69 ng·h/mL
- CLss_F [9]: 11.44 L/h and 17.43 L/h and 18.36 L/h
- Cmax [9]: 609 ng/mL and 670 ng/mL
- Tmax [9]: 6 h and 2 h
- CLss_F (Cohort A1, 95 mg/m2 per dose, C1D15, Geometric Mean, N 9): 9.802 L/h
- AUC_TAU [10]: 14697.9 ng·h/mL
- CLss_F [10]: 14.62 L/h
- Cmax [10]: 1880 ng/mL
- CLss_F (Cohort A1, 95 mg/m2 per dose, C1D15, Median, N 9): 10.12 L/h
- AUC_TAU [11]: 3760.87 ng·h/mL
- CLss_F [11]: 6.46 L/h
- Cmax [11]: 590 ng/mL
- Tmax [11]: 1 h
- AUC_TAU [12]: 14697.9 ng·h/mL and 11566.7 ng·h/mL and 5234.23 ng·h/mL and 6616.73 ng·h/mL and 4786.75 ng·h/mL and 7725.79 ng·h/mL and 3760.87 ng·h/mL and 12827.9 ng·h/mL
- CLss_F [12]: 6.46 L/h and 12.54 L/h and 10.51 L/h and 8.31 L/h and 12.53 L/h and 7.77 L/h and 10.12 L/h and 14.62 L/h and 8.19 L/h
- Cmax [12]: 1420 ng/mL and 607 ng/mL and 842 ng/mL and 590 ng/mL and 1230 ng/mL and 1220 ng/mL and 938 ng/mL and 1880 ng/mL
- Tmax [12]: 2 h
- CLss_F (Cohort A1, 115 mg/m2 per dose, C1D15, Geometric Mean, N 6): 11.462 L/h
- AUC_TAU [13]: 14092.4 ng·h/mL
- CLss_F [13]: 16.79 L/h
- Cmax [13]: 2090 ng/mL
- CLss_F (Cohort A1, 115 mg/m2 per dose, C1D15, Median, N 6): 10.95 L/h
- AUC_TAU [14]: 5878.52 ng·h/mL
- CLss_F [14]: 7.45 L/h
- Cmax [14]: 708 ng/mL
- Tmax [14]: 1 h
- AUC_TAU [15]: 8206.77 ng·h/mL and 6238.52 ng·h/mL and 11011.1 ng·h/mL and 5878.52 ng·h/mL and 8933.2 ng·h/mL and 14092.4 ng·h/mL
- CLss_F [15]: 15.84 L/h and 9.62 L/h and 9.99 L/h and 11.91 L/h and 16.79 L/h and 7.45 L/h
- Cmax [15]: 708 ng/mL and 1210 ng/mL and 1530 ng/mL and 859 ng/mL and 2090 ng/mL
- Tmax [15]: 2 h
- CLss_F (Cohort A2, 100 mg per dose, C1D15, Geometric Mean, N 5): 14.731 L/h
- AUC_TAU [16]: 16686 ng·h/mL
- CLss_F [16]: 32.13 L/h
- Cmax [16]: 1830 ng/mL
- CLss_F (Cohort A2, 100 mg per dose, C1D15, Median, N 5): 16.3 L/h
- AUC_TAU [17]: 3111.99 ng·h/mL
- CLss_F [17]: 5.99 L/h
- Cmax [17]: 341 ng/mL
- Tmax [17]: 1 h
- AUC_TAU [18]: 16686 ng·h/mL and 10710.2 ng·h/mL and 3111.99 ng·h/mL and 4225.59 ng·h/mL
- CLss_F [18]: 5.99 L/h and 9.34 L/h and 32.13 L/h and 16.3 L/h and 23.67 L/h
- Cmax [18]: 1830 ng/mL and 1630 ng/mL and 341 ng/mL and 528 ng/mL
- Tmax [18]: 2 h
- AUC_TAU (Cohort A2, 150 mg per dose, C1D15, Max, N 10): 8297.22 ng·h/mL
- AUC_TAU [19]: 4999.09 ng·h/mL
- Cmax [19]: 502 ng/mL
- Tmax [19]: 1 h
- AUC_TAU [20]: 7380.68 ng·h/mL and 6784.89 ng·h/mL and 4999.09 ng·h/mL and 5689.56 ng·h/mL and 7693.93 ng·h/mL and 6576.81 ng·h/mL and 7115.87 ng·h/mL and 7004.8 ng·h/mL and 8297.22 ng·h/mL
- CLss_F [20]: 25.34 L/h and 20.32 L/h and 22.11 L/h and 30.01 L/h and 26.36 L/h and 19.5 L/h and 22.81 L/h and 21.08 L/h
- Cmax [20]: 647 ng/mL and 750 ng/mL and 502 ng/mL and 670 ng/mL and 912 ng/mL and 943 ng/mL and 602 ng/mL and 814 ng/mL
- Tmax [20]: 2 h
- AUC_TAU [21]: 5523.12 ng·h/mL
- Cmax [21]: 721 ng/mL
- Tmax [21]: 2 h
- AUC_TAU [22]: 5523.12 ng·h/mL
- Cmax [22]: 721 ng/mL
- Tmax [22]: 2 h
- CLss_F (Cohort B2, 115 mg/m2 per dose, C1D15, Geometric Mean, N 6): 13.049 L/h
- AUC_TAU [23]: 17825.7 ng·h/mL
- CLss_F [23]: 20.8 L/h
- Cmax [23]: 2190 ng/mL
- Tmax [23]: 2 h
- CLss_F (Cohort B2, 115 mg/m2 per dose, C1D15, Median, N 6): 12.47 L/h
- AUC_TAU [24]: 5493.74 ng·h/mL
- CLss_F [24]: 7.85 L/h
- Cmax [24]: 766 ng/mL
- Tmax [24]: 1 h
- AUC_TAU [25]: 17825.7 ng·h/mL and 6932.9 ng·h/mL and 8905.09 ng·h/mL and 5493.74 ng·h/mL and 6008.87 ng·h/mL and 6951.39 ng·h/mL
- Cmax [25]: 2190 ng/mL and 1680 ng/mL and 1330 ng/mL and 766 ng/mL
- Tmax [25]: 2 h
- Tlast [26]: 24 h
- Tmax (Cycle 1 Day 1, Cohort A1, 95 mg/m2 per dose, listed as lorlatinib, in h (unit assumed)): 2
- Tlag [26]: 0 h
- Tlast [27]: 24 h
- Tmax (Cycle 1 Day 1, Cohort A1, 115 mg/m2 per dose, in h (unit assumed)): 1
- Tmax (Cycle 1 Day 1, Cohort A1, 115 mg/m2 per dose, listed as lorlatinib, in h (unit assumed)): 2
- Tlag [27]: 0 h
- AUMClast [28]: 83897.37077 and 79949.21779 and 69497.95951 and 102751.9946 and 91445.2354 and 87523.98089 and 72181.31228
- Tlast [28]: 24 h
- MRTlast [29]: 8.731 and 10.12 and 8.547 and 10.11 and 9.639 and 8.636
- Tmax [29]: 2
- Clast (Cycle 1 Day 1, Cohort A2, 150 mg per dose, in ng/mL): 158 and 127 and 138 and 146 and 206
- AUCall [30]: 9157 and 6869 and 12022.44647 and 9046 and 9080
- AUClast [30]: 9157 and 6869 and 12022.44647 and 9046 and 9080 and 8359
